From patent US11331317B2, “Composition for treating vascular or cardiac valvular calcification, containing thiamine derivative” (KYUNGPOOK NATIONAL UNIVERSITY INDUSTRY-ACADEMIC COOPERATION …, priority 2018, dated 2022) come the findings set out here.

Experiment [1] concerns vascular smooth muscle cells. Briefly: Investigation of calcification of vascular smooth muscle cells (silver nitrate staining, optical microscope). In kind it is cell-based, cattle. Particulars: inorganic phosphate (Pi)-induced, 100 and 200 μM, cultured 10 days, FIG. 1.
Description: The surrounding tissues were removed from the thoracoabdominal aorta isolated from male cattle, and endothelial cells that line blood vessels were removed. The cleaned blood vessels were divided into small fragments, which were then aligned on a culture dish containing Dulbecco's modified Eagle's medium (DMEM, Low Glucose, Thermo Fisher Scientific, USA) supplemented with 20% fetal bovine serum (FBS, Hyclone, Australia). Thereafter, culturing was performed in a cell incubator at 37° C. and 5% CO2 for 3-4 weeks. The vascular smooth muscle cells stretching out around the vascular tissues were subjected to primary culture with media changed every two days.
The vascular smooth muscle cells cultured in Preparation Example 1 above were stabilized by subculture in DMEM (high glucose) supplemented with penicillin/streptomycin antibiotics and 10% FBS. […]
After the induction of calcification by the method in Preparation Example 2 above, the media were removed from the culture dishes, followed by washing with phosphate buffer saline (PBS) three times. […] Thereafter, the cells were washed with primary distilled water two or three times, and then were determined for a degree of calcification through an optical microscope (BX53 microscope, Olympus, Japan).
Experiment [2] has as its system vascular smooth muscle cells. Briefly: Quantification of calcium in vascular smooth muscle cells. The class given is cell-based, cattle. As to conditions: inorganic phosphate-induced, 100 and 200 μM, corrected by protein amount, p<0.01 vs Vehicle, FIG. 2.
Description: The surrounding tissues were removed from the thoracoabdominal aorta isolated from male cattle, and endothelial cells that line blood vessels were removed. The cleaned blood vessels were divided into small fragments, which were then aligned on a culture dish containing Dulbecco's modified Eagle's medium (DMEM, Low Glucose, Thermo Fisher Scientific, USA) supplemented with 20% fetal bovine serum (FBS, Hyclone, Australia). Thereafter, culturing was performed in a cell incubator at 37° C. and 5% CO2 for 3-4 weeks. The vascular smooth muscle cells stretching out around the vascular tissues were subjected to primary culture with media changed every two days. […]
After the induction of calcification by the method in Preparation Example 2 above, the media were removed from the culture dishes, followed by washing with PBS. Then, the cells were decalcified by treatment with 0.6 N HCl at 4° C. for 24 hours, The supernatant was recovered for the use in the quantification of calcium, and proteins were extracted from the cells by using 0.1 N NaOH/0.1% SDS, and quantified by using the BCA method. […]
(ODSAMPLE and ODBLANK represent the OD612nm values of calcium sample and blank (water), respectively; and the slope represents the inclination value on the measured absorbance graph)
In experiment [3] the test system is C57BL/6J mice. Briefly: In vivo vitamin D3-induced vascular calcification, Von Kossa staining of aorta. As to conditions: FIG. 3. From the text:
(§1) C57BL/6J mice aged 8-9 weeks were grouped into 5 groups of 7 mice each, and four groups (one group being used as a control) underwent the induction of vascular calcification by subcutaneous administration of a high dose (9.0×10^5 IU) of vitamin D3 (Vit. D3) once a day for a total of 3 days.
First, on the 10th day after the administration of vitamin D3, the mice were sacrificed and the abdomen was opened, and then the aorta was separated by cleanly removing surrounding tissues of the aorta, and fixed with 4% paraformaldehyde (PFA) for 24 hours. The fixed aorta was washed, immersed in a 5% silver nitrate solution, and incubated under UV light for 30 minutes.

For experiment [4], the system named is C57BL/6J mice. Briefly: In vivo vitamin D3-induced vascular calcification, calcium quantification in aorta. Particulars: FIG. 4.
Description: as §1
Additionally, on the 10th day after the administration of vitamin D3, the mice were sacrificed and the abdomen was opened, and then the aorta was separated by cleanly removing surrounding tissues and frozen in liquid nitrogen. The frozen tissues were thawed, weighed after the removal of moisture, and then subjected to decalcification with a 0.6 N HCl solution. The colorimetric Ca quantification kit (Bioassay DICA-500) was used to quantify calcium in the 0.6 N HCl solution used in the decalcification, and the calcium quantification was corrected by using the tissue weight.

Each structure is given as a SMILES string.

With `CC(=C(CCO)SSCC1CCCO1)N(C=O)Cc1cnc(C)nc1N` (stereo in doubt) [fursultiamine, thiamine tetrahydrofurfuryl disulfide], the “calcification (black dots)” value in experiment [1] was “inhibited”. In addition, in experiment [2], the “calcium amount increased by inorganic phosphate” value is “decreased”. In addition, the “colored parts of aorta (Von Kossa staining)” value with C57BL/6J mice [3] (10 mg/kg and 30 mg/kg oral once a day for 13 days) is “reduced (recovered) dose-dependently”. Besides, in the experiment on C57BL/6J mice [3] (30 mg/kg oral), the “degree of recovery compared with the DCA administration group (positive control)” value is recorded as “excellent”. For the same compound, the “amount of calcium in the aorta” value in the experiment on C57BL/6J mice [4] (10 mg/kg and 30 mg/kg oral once a day for 13 days, corrected by tissue weight) is “decreased dose-dependently”. Also, the “degrees of decrease of calcium compared with the DCA group (positive control)” value with C57BL/6J mice [4] (10 mg/kg and 30 mg/kg oral) was “excellent”.

As to `C=CCSS/C(CCO)=C(/C)N(C=O)Cc1cnc(C)nc1N` [allithiamine, thiamine allyl disulfide], the “calcification (black dots)” value in experiment [1] is listed as “inhibited”. Also, in experiment [2], the “calcium amount increased by inorganic phosphate” value is reported as “decreased”.
